Test results published in patent US20230143486A1, “METHODS OF GENERATING MIDBRAIN DOPAMINE NEURONS, MIDBRAIN NEURONS AND USES THEREOF” (MEMORIAL SLOAN-KETTERING CANCER CENTER, priority 2020, published 2023).

Assays:
hPSC-derived mDA neurons = experiment: Optimizing WNT inhibition in mDA neuron differentiation (qRT-PCR and ICC); assay type: cell-based, human
Text: This example is designed to optimize the temporal window and concentration of the WNT treatment, and to test whether reactivation of non-canonical signaling is required for optimal levels of mDA neuron differentiation or maturation. […] IWP2 inhibits both non-canonical signaling and canonical signaling. The expressions of PITX3, DAT, and VMAT2 are quantified by qRT-PCR and immunocytochemistry (ICC). […] Optimized conditions are validated across hPSC lines (3 hESC and 3 iPSC lines; >3 independent differentiations each) (Zimmer, et al. Proceedings of the National Academy of Sciences of the United States of America 115, […]-[…] (2018)) including male and female lines.

[1] = tested on: differentiated mDA cells from hPSC and hiPSC; experiment: mRNA expression of marker genes in differentiated mDA cells (Wnt-boost protocol with or without FGF18 and/or IWP2); assay type: cell-based, human
Description: hPSC and hiPSC were used for the differentiation methods. First, the effect of Wnt signaling on ALDH1A1 induction in mDA cells differentiated with different protocols was evaluated. The mRNA expression levels of FOXA2, LMX1A, EN1, WNT1, OTX2, ALDH1A1 and PAX6 were evaluated in day 16-differentiated mDA cells produced using Wnt-boost, Wnt-boost+IWP2 (day 10-day 16), and Wnt-boost+IWP2 (day 12-day 16) protocols, with or without FGF18 (day 12-16) (FIG. 1).
SMA mRNA expression level was not detectable. The Wnt-boost protocol in combination with FGF18 and IWP2 generated optimal A/P and DN patterned precursors, where more than 90% cells are FOXA2/EN1 double positive (FIG. 2A). […] Furthermore, The mRNA expression levels of FOXA2, LMX1A, OTX2, EN1, ALDH1A1, BARHL2, BARHL1, PAX6, ALDH2, and WNT1 were evaluated at day 16 in differentiated mDA cells produced using Wnt-boost, Wnt-boost+IWP2 (day 12-day 16) protocols, with or without FGF18 (FIG. 3). The effect of IWP2 on the expression of marker genes in the differentiated cells was determined. […] The present disclosure observed the presence of very high quadrupole positive cells at day 16 (FOXA2/LMX1A, OTX2/EN1). […] Additionally, the expression of ALDH1A1, WNT1, PITX3, DAT, DDC, VMTA2 were increased by the addition of IWP2 and FGF18, whereas IWP2 lowered the expression of Ki67, SMA and SIX1. Immuno-staining images of day 60-differentiated cells were collected showing the expression of FOXA2, TH, and MAP2 (FIG. 14A), and EN1 and TH (FIG. 14B).
The mRNA expression levels of FOXA2, LMX1A, OTX2, EN1, ALDH1A1, WNT1, BARHL1, PAX6, OTX2, and NKX2-2 were evaluated at day 16 in differentiated mDA cells produced using Wnt-boost, Wnt-boost+IWP2 (day 12-day 16) protocols, with or without FGF18. The present disclosure discovered that IWP2 exposure led to increased ALDH1A1 as well as high endogenous WNT1 expression at day 16 both in Wnt Boost and Wnt Boost+FGF18 conditions. Moreover, IWP2 exposure lowered PAX6 and NKX2-2 expression (FIG. 12).
The mRNA expression of marker genes in sorted day 28-differentiated CD49^weak/CD184^weak cells and CD49^weak/CD184^strong cells were measured (FIGS. 21 and 22).

ALK2, ALK3, and ALK6 = settings: cited from earlier work
rodent GSK3β homologs = settings: cited from earlier work
[2] = day 16, both Wnt Boost and Wnt Boost+FGF18 conditions, IWP2 day 12-day 16

Cc1ccc2nc(NC(=O)CSc3nc4c(c(=O)n3-c3ccccc3)SCC4)sc2c1 [IWP2]
effect on the expression of EN1 or the emergence of contaminating markers (SIX1 and SMA) (hPSC-derived mDA neurons): does not negatively affect
expression of Ki67, SMA and SIX1 ([1]; Wnt-boost protocol, IWP2 day 12 to day 16): lowered
expression of ALDH1A1 ([1]; continued exposure until day 30, day 30-differentiated cells): further induced
PAX6 and NKX2-2 expression ([1]; day 16, IWP2 day 12-day 16): lowered
ALDH1A1 expression [1, 2]: increased
endogenous WNT1 expression [1, 2]: high
expression of ALDH1A1 ([1]; exposure from day 12 to day 25, sorted day 28-differentiated cells, confirmed by immunofluorescent staining): further induced

c1ccc2c(-c3cnn4cc(-c5ccc(N6CCNCC6)cc5)cnc34)ccnc2c1 [LDN193189, 4-(6-(4-(piperazin-1-yl)phenyl)pyrazolo[1,5-a]pyrimidin-3-yl)quinoline]
inhibitor of ALK2, ALK3, and ALK6 (ALK2, ALK3, and ALK6): highly potent

Cc1c[nH]c(-c2cnc(NCCNc3ccc(C#N)cn3)nc2-c2ccc(Cl)cc2Cl)n1 [CHIR99021, 6-(2-(4-(2,4-dichlorophenyl)-5-(4-methyl-1H-imidazol-2-yl)pyrimidin-2-ylamino)ethylamino)nicotinonitrile]
IC50 values against rodent GSK3β homologs (rodent GSK3β homologs): nanomolar

Oc1nc(-c2ccc(C(F)(F)F)cc2)nc2c1CSCC2 [XAV939]
inhibition of canonical signaling alone: results comparable to the IWP2 treatment (hPSC-derived mDA neurons; preliminary data (not shown)): might not be sufficient

B1: FGF18: FGF activator, member of the FGF8 subfamily (protein, UniProt O76093 28-207, looked up)
Fibroblast growth factor 18: EENVDFRIHVENQTRARDDVSRKQLRLYQLYSRTSGKHIQVLGRRISARGEDGDKYAQLLVETDTFGSQVRIKGKETEFYLCMNRKGKLVGKPDGTSKECVFIEKVLENNYTALMSAKYSGWYVGFTKKGRPRKGPKTRENQQDVHFMKRYPKGQPELQKPFKYTTVTKRSRRIRPTHPA
expression of EN1 ([1]; Wnt-boost protocol, FGF18 day 12 to day 16): high expression
